Results as given in ChEMBL document CHEMBL4043203, “Synthesis and biological evaluations of new nitric oxide-anti-inflammatory drug hybrids” (Bioorg Med Chem Lett, 2017).

Key:
Rattus norvegicus [1] = assay: Antiinflammatory activity in Wistar albino rat assessed as serum nitric oxide level at 50 mg/kg, po treated for 3 successive days measured at 2 hrs post last dose by Griess reagent based colorimetric assay (reference value: 147.90 +/- 31.76 micromol/L); format: functional, Wister
Rattus norvegicus [2] = assay: Ulcerogenic activity in Wistar albino rat assessed as relative ulcerogenicity at 50 mg/kg, po treated for 3 successive days measured at 2 hrs post last dose relative to celecoxib; format: toxicity, organism-based, Wister; conditions: in vivo
[3] = biological target: T1, Prostaglandin G/H synthase 1 (Ovis aries, UniProt P05979); assay: Inhibition of ovine COX1 using arachidonic acid as substrate by colorimetric enzyme immune assay
T1 sequence (P05979 whole entry): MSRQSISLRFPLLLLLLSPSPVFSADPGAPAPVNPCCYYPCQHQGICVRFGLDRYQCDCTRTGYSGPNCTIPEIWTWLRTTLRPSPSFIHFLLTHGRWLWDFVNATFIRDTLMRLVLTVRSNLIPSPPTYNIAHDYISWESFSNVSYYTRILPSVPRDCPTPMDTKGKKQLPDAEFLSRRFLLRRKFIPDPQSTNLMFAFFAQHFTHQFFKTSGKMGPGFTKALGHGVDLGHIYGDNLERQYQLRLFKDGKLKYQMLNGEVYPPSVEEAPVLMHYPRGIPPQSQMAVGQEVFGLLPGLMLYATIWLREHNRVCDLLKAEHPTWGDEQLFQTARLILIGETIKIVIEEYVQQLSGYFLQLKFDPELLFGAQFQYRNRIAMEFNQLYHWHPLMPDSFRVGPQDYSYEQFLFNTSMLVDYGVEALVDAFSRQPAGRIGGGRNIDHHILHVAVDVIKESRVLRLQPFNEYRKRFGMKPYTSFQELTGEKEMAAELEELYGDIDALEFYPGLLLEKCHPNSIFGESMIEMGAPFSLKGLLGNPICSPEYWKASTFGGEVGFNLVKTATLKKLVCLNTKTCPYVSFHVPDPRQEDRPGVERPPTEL

Rattus norvegicus [4] = assay: Ulcerogenic activity in Wistar albino rat assessed as ulcer index at 50 mg/kg, po treated for 3 successive days measured at 2 hrs post last dose; format: toxicity, organism-based, Wister; conditions: in vivo
Rattus norvegicus [5] = assay: Antiinflammatory activity in po dosed Wistar albino rat assessed as inhibition of carrageenan-induced left hind paw edema pretreated for 1 hr followed by carrageenan addition measured after 2 hrs; format: functional; conditions: Wister
[6] = Selectivity index, ratio of IC50 for ovine COX1 to IC50 for recombinant human COX2
Rattus norvegicus [7] = assay: Antiinflammatory activity in Wistar albino rat assessed as inhibition of carrageenan-induced left hind paw edema at 50 mg/kg, po pretreated for 1 hr followed by carrageenan addition measured after 2 hrs relative to control; format: functional; conditions: Wister
[8] = biological target: T2, Prostaglandin G/H synthase 2 (Homo sapiens, UniProt P35354); assay: Inhibition of recombinant human COX2 using arachidonic acid as substrate by colorimetric enzyme immune assay
T2 sequence (P35354 whole entry): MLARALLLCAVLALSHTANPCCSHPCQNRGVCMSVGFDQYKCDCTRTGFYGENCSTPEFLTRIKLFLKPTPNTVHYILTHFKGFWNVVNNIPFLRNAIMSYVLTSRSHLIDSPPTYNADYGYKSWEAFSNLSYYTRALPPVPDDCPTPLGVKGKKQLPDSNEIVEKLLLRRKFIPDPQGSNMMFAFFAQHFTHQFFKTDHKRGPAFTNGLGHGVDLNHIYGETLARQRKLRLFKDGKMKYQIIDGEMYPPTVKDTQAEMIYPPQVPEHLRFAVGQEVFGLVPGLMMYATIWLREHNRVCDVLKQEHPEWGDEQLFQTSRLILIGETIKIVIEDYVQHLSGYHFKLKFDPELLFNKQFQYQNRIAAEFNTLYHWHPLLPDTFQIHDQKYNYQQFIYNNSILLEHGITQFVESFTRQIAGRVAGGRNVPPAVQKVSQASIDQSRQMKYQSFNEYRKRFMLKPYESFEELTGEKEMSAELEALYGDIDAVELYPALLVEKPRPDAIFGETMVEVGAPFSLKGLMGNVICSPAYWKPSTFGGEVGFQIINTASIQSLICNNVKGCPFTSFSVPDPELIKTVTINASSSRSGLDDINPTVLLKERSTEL

Rattus norvegicus [9] = organism: Rattus norvegicus; assay: Ulcerogenic activity in Wistar albino rat assessed as minimum vasocapillary dilation in stomach after 48 hrs by hematoxylin and eosin staining based microscopic analysis; format: toxicity, Wister; conditions: in vivo
Rattus norvegicus [10] = organism: Rattus norvegicus; assay: Ulcerogenic activity in Wistar albino rat assessed as lesion in stomach after 48 hrs by hematoxylin and eosin staining based microscopic analysis; format: toxicity, Wister; conditions: in vivo
Rattus norvegicus [11] = organism: Rattus norvegicus; assay: Ulcerogenic activity in Wistar albino rat assessed as loss of mucous in stomach after 48 hrs by hematoxylin and eosin staining based microscopic analysis; format: toxicity, Wister; conditions: in vivo
Rattus norvegicus [12] = organism: Rattus norvegicus; assay: Ulcerogenic activity in Wistar albino rat assessed as abdominal perforation in stomach after 48 hrs by hematoxylin and eosin staining based microscopic analysis; format: toxicity, Wister; conditions: in vivo

IC50 [3] | Ratio IC50 [6] | IC50 [8] | SMILES | Activity (Rattus norvegicus [1]) | fold change (FC) (Rattus norvegicus [2]) | UI (Rattus norvegicus [4]) | ED50 (Rattus norvegicus [5]) | inhibition in vivo at 50 mg/kg (Rattus norvegicus [7]) | Activity (Rattus norvegicus [9]) | Activity (Rattus norvegicus [10]) | Activity (Rattus norvegicus [11]) | Activity (Rattus norvegicus [12])
10.2 µM | 7.94 | 1.28 µM | Cc1ccc(-c2nnc(-c3cnn(-c4ccccc4)c3C)c3nocc23)cc1 | 273.1 µmol/L | 1 | 0.33 | 46 mg/kg | 54% |  |  |  | 
9.2 µM | 1.39 | 6.6 µM | Cc1c(-c2nc3ccccc3nc2N=O)cnn1-c1ccccc1 | 140.1 µmol/L | 9.09 | 3 | 40 mg/kg | 59% |  |  |  | 
9.2 µM | 5.25 | 1.75 µM | Cc1c(-c2nc3ccccn3c2N=O)cnn1-c1ccccc1 | 402.6 µmol/L | 6.06 | 2 | 35 mg/kg | 65% |  |  |  | 
6.8 µM | 4.38 | 1.55 µM | Cc1c(-c2c(N=O)nc3ncccn23)cnn1-c1ccccc1 | 386.3 µmol/L | 1 | 0.33 | 38 mg/kg | 62% | Non-Toxic | Non-Toxic |  | 
9.22 µM | 5.77 | 1.61 µM | Cc1c(C2=C(N=O)Nc3ccccc3N2)cnn1-c1ccccc1 | 370.1 µmol/L | 7.06 | 2.33 | 40 mg/kg | 57% |  |  |  | 
5.6 µM | 4.59 | 1.22 µM | Cc1c(C2=C(N=O)Oc3cccnc3N2)cnn1-c1ccccc1 | 415.3 µmol/L | 1 | 0.33 | 35 mg/kg | 64% |  |  |  | 
9.11 µM | 2.02 | 4.5 µM | Cc1c(C(=O)c2conc2C(=O)c2cnn(-c3ccccc3)c2C)cnn1-c1ccccc1 | 286.2 µmol/L | 1 | 0.33 |  |  |  |  |  | 
 |  |  | Cc1ccc(-c2cc(C(F)(F)F)nn2-c2ccc(S(N)(=O)=O)cc2)cc1 [CELECOXIB] |  |  | 0.33 | 35 mg/kg | 65% | Non-Toxic | Non-Toxic |  | 
10.1 µM | 1.46 | 6.88 µM | Cc1c(-c2nnc(-c3cnn(-c4ccccc4)c3C)c3nocc23)cnn1-c1ccccc1 | 318.8 µmol/L | 4.03 | 1.33 |  |  | Non-Toxic | Non-Toxic |  | 
4.52 µM | 4.03 | 1.12 µM | Cc1ccc(C(=O)c2conc2C(=O)c2cnn(-c3ccccc3)c2C)cc1 | 346.5 µmol/L | 4.03 | 1.33 | 56 mg/kg | 45% |  |  |  | 
 |  |  | COc1ccc2c(c1)c(CC(=O)O)c(C)n2C(=O)c1ccc(Cl)cc1 [INDOMETHACIN] |  |  |  |  |  |  |  | Toxic | Toxic
5.88 µM | 7.84 | 0.78 µM | Cc1c(-c2nnc(-c3ccccc3)c3conc23)cnn1-c1ccccc1 | 314.4 µmol/L | 5.06 | 1.76 | 50 mg/kg | 50% |  |  |  | 
8.6 µM | 2.04 | 4.2 µM | Cc1c(C2=C(N=O)Oc3ccccc3N2)cnn1-c1ccccc1 | 335.3 µmol/L | 6.06 | 2 | 45 mg/kg | 56% |  |  |  | 
7.72 µM | 4.21 | 1.83 µM | Cc1c(C2=C(N=O)Sc3ccccc3N2)cnn1-c1ccccc1 | 348.3 µmol/L | 1 | 0.33 | 45 mg/kg | 56% |  |  |  | 
9.8 µM | 4.2 | 2.33 µM | Cc1c(C(=O)/C(Cl)=N/O)cnn1-c1ccccc1 | 315.5 µmol/L | 15.15 | 5 | 50 mg/kg | 50% | Non-Toxic |  | Non-Toxic | 
11.1 µM | 7.44 | 1.49 µM | Cc1c(C(=O)c2nocc2C(=O)c2ccccc2)cnn1-c1ccccc1 | 372 µmol/L | 1 | 0.33 | 61 mg/kg | 41% |  |  |  | 
